Results published in patent US9169241B2, “Quinolinyloxyphenylsulfonamides” (Max-Planck-Gesellschaft Zur Forderung der Wissenschaften …, priority 2009, dated 2015).
Like-named read-outs stand apart in the source and are kept apart here.

Experiments:
Hs578T [1] = experiment: Matrigel outgrowth assay/branching assay; type: cell-based; settings: Homo sapiens, Hs-578T; HS578T cell line; Table Ib; read-out: Total branching inhibition in Matrigel HS578T
How it was run: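 Read-out: microscopic images of invasive branching structures at 48 h, 72 h and 96 h. Cells sat on a 3 mg/ml Matrigel layer (set 1 h, 37° C) with compound at 3.125, 1.56 and 0.78 μM or DMSO. A concentration counts as positive only with complete branching inhibition.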

indicated cell line = experiment: Wound healing migration assay (Table IV); type: cell-based; settings: compounds at 12.5, 6.25, 3.125 μM, 48 h-72 h
Procedure: This method mimics cell migration during wound healing in vivo. The basic steps involve creating a “wound” in a cell monolayer, capturing the images at the beginning and at regular intervals during cell migration to close the wound, and comparing the images to quantify the migration rate of the cells. In detail, 150000 cell/24 well have been seeded and allowed to form a monolayer overnight. Subsequently a “wound” or “scratch” has been performed with a 1000 μl pipette tip. The STDV of wound size is normally below 10% at time point t0. The assay was stopped by fixation with 0.05% Crystal violet/20% methanol when control scratches were closed. The assay was terminated between 48 h and 72 h depending on the migration potential of the indicated cell line. The “wounds” were visualized with a Zeiss Axiovert S100 microscope (Carl Zeiss UK, Welwyn Garden City, UK). The tested compounds were used at 12.5 μM, 6.25, 3.125 μM and DMSO control. IC50 values have been calculated as 50% wound size in between t0 and t48 or t72.

tumor cell = experiment: Matrigel outgrowth assay/branching assay (Table Va); type: cell-based
Procedure: The Matrigel outgrowth assay is based on the ability of tumor cell to penetrate a solid gel of extracellular matrix proteins mimicking the metastasis formation in vivo. While cells with low invasive potential appear as roundish cell or cell cluster, cells with high invasive potential penetrate the Matrigel and form polymorphic structures. In detail 65 μl of Matrigel matrix (Matrigel™ Matrix, BD Biosciences, Bedford, Mass., USA) with a concentration of 3 mg/ml have been polymerized in 96 well plates for 1 h at 37° C. Subsequently 5000 cell/well were seeded into each well containing cell culture medium and indicated compound with concentrations of 3.125 μM, 1.56 μM and 0.78 μM as well as DMSO control. After 48 h, 72 h and 96 h images of cell were taken on an inverted microscope using a 5× objective (Zeiss Axiovert S100 microscope Carl Zeiss UK, Welwyn Garden City, UK). Only compound concentrations were total branching inhibition was evident were accounted as positive. Method was used as previously described, with some modifications (Thompson E W, et al. Association of increased basement membrane invasiveness with absence of estrogen receptor and expression of vimentin in human breast cancer cell lines. J Cell Physiol 1992; 150:534-44).

viable cells in culture = experiment: Cell viability assay at 10 μM (CellTiter-Glo, Table VII); type: cell-based; settings: compound 10 μM, 72 h;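 also: graded A 0-20%; B 21-40%; C 41-60%; D over 60% viable cells relative to DMSO control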
How it was run: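 Viable cell number was measured with the CellTiter-Glo Luminescent Cell Viability Assay (Promega), following the manufacturer's protocol, which quantifies ATP as a marker of metabolically active cells. In 96-well plates, 1000 cells/well in 100 μl medium were exposed to compound at 10 μM, or to DMSO control, for 72 h. Values were calculated relative to DMSO-control ATP.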

C8161 = experiment: Apoptosis assay (Cellomics, nucleus condensation); type: cell-based; settings: Homo sapiens, Table III, read-out: Apoptosis induction in C8161
Text: (§1) The Cellomics BioApplication (Thermo Fischer Cellomics Products, Pittsburgh, Pa.) is an automated image analysis algorithm that provides detailed analysis of phenotypes related to apoptosis. As one of the most prominent characteristics of apoptotics cell a nucleus condensation takes place. This can be measured fluorescence signal intensity using a CCD camera on fully automated microscope system. The Cellomics system is able to quantify the fluorescence intensity per single nucleus and calculates the variation of signal intensity in each cell population. […] Additionally the number of detected cell decreases normally in apoptotic cell populations. In detail 5000 cell per 96 well were labeled with DNA intercalating dye (Hoechst 33342, Sigma, Steinheim, Germany) to visualize the nucleus in a fluorescence microscope under live conditions. The apoptosis assay was performed 24 h and 48 h after addition of compound at concentrations 12.5 μM, 6.25 μM, 3.125 μM, 1.56 μM, 0.78 μM, 0.39 μM as well as DMSO control for 48 h.

U138 = experiment: Apoptosis assay (Cellomics, nucleus condensation); type: cell-based; settings: Table III, read-out: Apoptosis induction in U138
Text: as §1

Hs578T [2] = experiment: Apoptosis assay (Cellomics, nucleus condensation); type: cell-based; settings: Homo sapiens, Hs-578T, Table III, read-out: Apoptosis induction in Hs578T
Text: as §1

SF126 = experiment: Apoptosis assay (Cellomics, nucleus condensation); type: cell-based; settings: Homo sapiens, SF-126, Table III, read-out: Apoptosis induction in SF126
Text: as §1

U118 = experiment: Apoptosis assay (Cellomics, nucleus condensation); type: cell-based; settings: Table III, read-out: Apoptosis induction in U118
Text: as §1

SF763 = experiment: Apoptosis assay (Cellomics, nucleus condensation); type: cell-based; settings: Table III, read-out: Apoptosis induction in SF763
Text: as §1

cells = experiment: Boyden chamber migration assay (Table VI); type: cell-based; settings: Homo sapiens, Hs-578T, 16 h, Hs578T cells; 16 h migration
Procedure: The Boyden chamber assay is based on a chamber of two medium-filled compartments separated by a microporous membrane of 8 μM (Cell culture insert 8.0 μM pore size, BD Biosciences, Bedford, Mass.). The boyden chamber migration assays were carried out according to the supplier's instructions. In general, 20000 cells are placed in the upper compartment with medium containing 0% FCS plus 0.1% BSA and are allowed to migrate 16 h through the pores of the membrane into the lower compartment, which is filled with cell culture medium containing 10% FCS as chemotactic agents. The cells remaining in the insert were removed with a cotton swab, and the cells on the bottom of the filter were fixed and counted. (Zhang Y X, et al. AXL is a potential target for therapeutic intervention in breast cancer progression. Cancer Res. 2008; 68:1905-15).

[3] = Homo sapiens, C8161 cells, read-out: IC50 Wound healing Assay C8161
[4] = SF763 cells, read-out: IC50 Wound healing Assay SF763
[5] = Homo sapiens, C8161 cells, read-out: Total branching inhibition in Matrigel C8161
[6] = Homo sapiens, Hs-578T, Hs578T cells, read-out: Total branching inhibition in Matrigel Hs578T
[7] = U118 cells, read-out: Total branching inhibition in Matrigel U118
[8] = U138 cells, read-out: Total branching inhibition in Matrigel U138
[9] = Homo sapiens, HCT-116, HCT116 def, read-out: percentage (%) of viable cells HCT 116def
[10] = Homo sapiens, HCT-116, HCT116 wt, read-out: percentage (%) of viable cells HCT 116wt
[11] = Homo sapiens, HT-29, HT29, read-out: percentage (%) of viable cells HT29
[12] = Homo sapiens, NCI-H358, H358, read-out: percentage (%) of viable cells H358
[13] = Homo sapiens, NCI-H1650, H1650, read-out: percentage (%) of viable cells H1650
[14] = Homo sapiens, NCI-H1666, H1666, read-out: percentage (%) of viable cells H1666
[15] = Homo sapiens, NCI-H1975, H1975, read-out: percentage (%) of viable cells H1975
[16] = Homo sapiens, NCI-H1993, H1993, read-out: percentage (%) of viable cells H1993
[17] = Homo sapiens, A549, read-out: percentage (%) of viable cells A549
[18] = Homo sapiens, HCC827, read-out: percentage (%) of viable cells HCC827
[19] = Homo sapiens, SW480, read-out: percentage (%) of viable cells SW480
[20] = RKO, read-out: percentage (%) of viable cells RKO

melting point	IC50 (indicated cell line; [3])	IC50 (tumor cell; [5])	IC50 (tumor cell; [6])	IC50 (tumor cell; [7])	IC50 (tumor cell; [8])	IC50 (C8161)	Structure (SMILES)	IC50 (Hs578T [1])	viability at 10 µM (viable cells in culture; [9])	viability at 10 µM (viable cells in culture; [10])	viability at 10 µM (viable cells in culture; [11])	viability at 10 µM (viable cells in culture; [12])	viability at 10 µM (viable cells in culture; [13])	viability at 10 µM (viable cells in culture; [14])	viability at 10 µM (viable cells in culture; [15])	viability at 10 µM (viable cells in culture; [16])	viability at 10 µM (viable cells in culture; [17])	viability at 10 µM (viable cells in culture; [18])	viability at 10 µM (viable cells in culture; [19])	viability at 10 µM (viable cells in culture; [20])	also measured
106 to 110 °C	12.5 to 50 µM	≤ 5 µM	≤ 5 µM	≤ 5 µM	≤ 5 µM	≤ 12.5 µM	COc1cc2c(Oc3ccc(NS(=O)(=O)c4ccc(Cl)cc4F)cc3F)ccnc2cc1OCCCN1CCN(C)CC1 [Example 27, 4-Chloro-2-fluoro-N-(3-fluoro-4-{6-methoxy-7-[3-(4-methyl-piperazin-1-yl)-propoxy]-quinolin-4-yloxy}-phenyl)-benzenesulfonamide]	≤ 10 µM	0 to 20%	0 to 20%	21 to 40%	0 to 20%	41 to 60%	41 to 60%	21 to 40%	0 to 20%	> 60%	> 60%	0 to 20%	0 to 20%	IC50 (indicated cell line; [4]): ≤ 12.5 µM; IC50 (U138): ≤ 12.5 µM; IC50 (Hs578T [2]): ≤ 12.5 µM; IC50 (SF126): 12.5 to 50 µM; IC50 (U118): ≤ 12.5 µM; IC50 (SF763): ≤ 12.5 µM; IC50 (cells): ≤ 5 µM
167 to 169 °C	≤ 12.5 µM	≤ 5 µM	≤ 5 µM	≤ 5 µM	≤ 5 µM	≤ 12.5 µM	COc1cc(S(=O)(=O)Nc2ccc(Oc3ccnc4cc(OCCCN5CCN(C)CC5)c(OC)cc34)c(F)c2)ccc1F [Example 18, 4-Fluoro-N-(3-fluoro-4-{6-methoxy-7-[3-(4-methyl-piperazin-1-yl)-propoxy]-quinolin-4-yloxy}-phenyl)-3-methoxy-benzenesulfonamide]	≤ 10 µM	0 to 20%	0 to 20%	0 to 20%	0 to 20%	21 to 40%	21 to 40%	0 to 20%	0 to 20%	21 to 40%	21 to 40%	0 to 20%	0 to 20%	IC50 (indicated cell line; [4]): 12.5 to 50 µM; IC50 (U138): ≤ 12.5 µM; IC50 (Hs578T [2]): ≤ 12.5 µM; IC50 (SF126): ≤ 12.5 µM; IC50 (U118): ≤ 12.5 µM; IC50 (SF763): ≤ 12.5 µM; IC50 (cells): ≤ 5 µM
145 to 146 °C	12.5 to 50 µM	≤ 5 µM	≤ 5 µM	≤ 5 µM	5 to 50 µM	≤ 12.5 µM	COc1cc2c(Oc3ccc(NS(=O)(=O)c4cc(Cl)cc(Cl)c4OC)cc3F)ccnc2cc1OCCCN1CCCC(C)C1 (centres unmarked) [Example 75, 3,5-Dichloro-N-(3-fluoro-4-{6-methoxy-7-[3-(3-methyl-piperidin-1-yl)-propoxy]-quinolin-4-yloxy}-phenyl)-2-methoxy-benzenesulfonamide]	≤ 10 µM	21 to 40%	21 to 40%	0 to 20%	0 to 20%	21 to 40%	41 to 60%	0 to 20%	21 to 40%	> 60%	> 60%	0 to 20%	0 to 20%	IC50 (U138): ≤ 12.5 µM; IC50 (Hs578T [2]): ≤ 12.5 µM; IC50 (SF126): ≤ 12.5 µM; IC50 (U118): ≤ 12.5 µM; IC50 (SF763): ≤ 12.5 µM; IC50 (cells): ≤ 5 µM

Structure (SMILES)	melting point	IC50 (indicated cell line; [3])	IC50 (tumor cell; [5])	IC50 (tumor cell; [6])	IC50 (tumor cell; [7])	IC50 (tumor cell; [8])	IC50 (C8161)	IC50 (Hs578T [1])	viability at 10 µM (viable cells in culture; [9])	viability at 10 µM (viable cells in culture; [10])	viability at 10 µM (viable cells in culture; [11])	viability at 10 µM (viable cells in culture; [12])	viability at 10 µM (viable cells in culture; [13])	viability at 10 µM (viable cells in culture; [14])	viability at 10 µM (viable cells in culture; [15])	viability at 10 µM (viable cells in culture; [16])	viability at 10 µM (viable cells in culture; [17])	viability at 10 µM (viable cells in culture; [18])	viability at 10 µM (viable cells in culture; [19])	viability at 10 µM (viable cells in culture; [20])	also measured
COc1cc2c(Oc3ccc(NS(=O)(=O)c4cc(F)ccc4F)cc3F)ccnc2cc1OCCCCN1CCOCC1 [Example 83, 2,5-Difluoro-N-{3-fluoro-4-[6-methoxy-7-(4-morpholin-4-yl-butoxy)-quinolin-4-yloxy]-phenyl}-benzenesulfonamide]	156 to 158 °C	≤ 12.5 µM	≤ 5 µM	≤ 5 µM	≤ 5 µM	≤ 5 µM	≤ 12.5 µM	≤ 10 µM	21 to 40%	0 to 20%	0 to 20%	0 to 20%	21 to 40%	21 to 40%	41 to 60%	0 to 20%	21 to 40%	0 to 20%	21 to 40%	> 60%	IC50 (indicated cell line; [4]): ≤ 12.5 µM; IC50 (U138): ≤ 12.5 µM; IC50 (Hs578T [2]): ≤ 12.5 µM; IC50 (SF126): ≤ 12.5 µM; IC50 (U118): ≤ 12.5 µM; IC50 (SF763): ≤ 12.5 µM; IC50 (cells): ≤ 5 µM
